Results taken from patent US20170190671A1, “BIS(ARYL)CATECHOL DERIVATIVES AS HERBICIDES” (E I DU PONT DE NEMOURS AND COMPANY, priority 2014, published 2017).

Experiments:
Format in all cases: in vivo
kochia (Kochia scoparia) [1] = assay: Test A preemergence; settings: Bassia scoparia, pre-emergence, 240 h, 0 to 100 scale (0 no effect, 100 complete control), read-out: Kochia plant response rating
Method in brief: (§1)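 Greenhouse pot test, loam/sand soil. Formulation: non-phytotoxic solvent mix plus surfactant. Pre: directed spray onto soil after sowing. Post: plants at 1–2 leaf, 2–10 cm. Rated visually vs untreated controls at ~10 d, 0 (no effect) to 100 (complete control).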

[2] = tested on: Italian ryegrass (Lolium multiflorum); assay: Test A preemergence; settings: Lolium multiflorum, pre-emergence, 240 h, 0 to 100 scale (0 no effect, 100 complete control), read-out: Ryegrass, Italian plant response rating
Method in brief: as §1

[3] = tested on: barnyardgrass (Echinochloa crus-galli); assay: Test A preemergence; settings: Echinochloa crus-galli, pre-emergence, 240 h, 0 to 100 scale (0 no effect, 100 complete control), read-out: Barnyardgrass plant response rating
Method in brief: as §1

[4] = tested on: pigweed (Amaranthus retroflexus); assay: Test A preemergence; settings: Amaranthus retroflexus, pre-emergence, 240 h, 0 to 100 scale (0 no effect, 100 complete control), read-out: Pigweed plant response rating
Method in brief: as §1

[5] = tested on: giant foxtail (Setaria faberii); assay: Test A preemergence; settings: Setaria faberi, pre-emergence, 240 h, 0 to 100 scale (0 no effect, 100 complete control), read-out: Foxtail, Giant plant response rating
Method in brief: as §1

[6] = tested on: ragweed (common ragweed, Ambrosia elatior); assay: Test A preemergence; settings: Ambrosia artemisiifolia, pre-emergence, 240 h, 0 to 100 scale (0 no effect, 100 complete control), read-out: Ragweed plant response rating
Method in brief: as §1

kochia (Kochia scoparia) [7] = assay: Test A postemergence; settings: Bassia scoparia, post-emergence, 240 h, 0 to 100 scale, read-out: Plant response rating, Kochia
Method in brief: as §1

[8] = tested on: Italian ryegrass (Lolium multiflorum); assay: Test A postemergence; settings: Lolium multiflorum, post-emergence, 240 h, 0 to 100 scale, read-out: Plant response rating, Ryegrass, Italian
Method in brief: as §1

[9] = tested on: galium (catchweed bedstraw, Galium aparine); assay: Test A postemergence; settings: Galium, post-emergence, 240 h, 0 to 100 scale, read-out: Plant response rating, Galium
Method in brief: as §1

[10] = tested on: barnyardgrass (Echinochloa crus-galli); assay: Test A postemergence; settings: Echinochloa crus-galli, post-emergence, 240 h, 0 to 100 scale, read-out: Plant response rating, Barnyardgrass
Method in brief: as §1

[11] = tested on: pigweed (Amaranthus retroflexus); assay: Test A postemergence; settings: Amaranthus retroflexus, post-emergence, 240 h, 0 to 100 scale, read-out: Plant response rating, Pigweed
Method in brief: as §1

[12] = tested on: blackgrass (Alopecurus myosuroides); assay: Test A postemergence; settings: Alopecurus myosuroides, post-emergence, 240 h, 0 to 100 scale, read-out: Plant response rating, Blackgrass
Method in brief: as §1

[13] = tested on: giant foxtail (Setaria faberii); assay: Test A postemergence; settings: Setaria faberi, post-emergence, 240 h, 0 to 100 scale, read-out: Plant response rating, Foxtail, Giant
Method in brief: as §1

[14] = tested on: ragweed (common ragweed, Ambrosia elatior); assay: Test A postemergence; settings: Ambrosia artemisiifolia, post-emergence, 240 h, 0 to 100 scale, read-out: Plant response rating, Ragweed
Method in brief: as §1

[15] = tested on: wheat (Triticum aestivum); assay: Test A postemergence; settings: Triticum aestivum, post-emergence, 240 h, 0 to 100 scale, read-out: Plant response rating, Wheat
Method in brief: as §1

corn (Zea mays) = assay: Test A postemergence; settings: Zea mays, post-emergence, 240 h, 0 to 100 scale
Method in brief: as §1

rice (Oryza sativa) = assay: Test B flooded paddy; settings: Oryza sativa, 336 h; 250 g ai/ha, Flood, 13 to 15 days, scale 0 (no effect) to 100 (complete control); read-out: Plant response rating, Rice
Method in brief: (§2)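 Test compounds are applied straight into paddy water held 3 cm above the soil surface, with that flood maintained for the whole test. After 13 to 15 days in the greenhouse, each species is scored visually relative to controls.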

[16] = tested on: barnyardgrass (Echinochloa crus-galli); assay: Test B flooded paddy; settings: Echinochloa crus-galli, 336 h; 250 g ai/ha, Flood, 13 to 15 days, scale 0 (no effect) to 100 (complete control); read-out: Plant response rating, Barnyardgrass
Method in brief: as §2

[17] = tested on: sedge, umbrella (small-flower umbrella sedge, Cyperus difformis); assay: Test B flooded paddy; settings: Cyperus difformis, 336 h; 250 g ai/ha, Flood, 13 to 15 days, scale 0 (no effect) to 100 (complete control); read-out: Plant response rating, Sedge, Umbrella
Method in brief: as §2

[18] = tested on: ducksalad (Heteranthera limosa); assay: Test B flooded paddy; settings: Heteranthera limosa, 336 h; 250 g ai/ha, Flood, 13 to 15 days, scale 0 (no effect) to 100 (complete control); read-out: Plant response rating, Ducksalad
Method in brief: as §2

**Q.** Which results are given for `FC(F)c1cccc(Oc2ncc(Br)cn2)c1Oc1ncc(Cl)cn1` [Compound 41]?
**A.** pest or weed control at 31 g/ha (kochia (Kochia scoparia) [1]; 31 g ai/ha): 70%; pest or weed control at 125 g/ha (kochia (Kochia scoparia) [1]; 125 g ai/ha): 100%; pest or weed control at 31 g/ha ([2]; 31 g ai/ha): 0%; pest or weed control at 125 g/ha ([2]; 125 g ai/ha): 30%; pest or weed control at 31 g/ha ([3]; 31 g ai/ha): 20%; pest or weed control at 125 g/ha ([3]; 125 g ai/ha): 80%; pest or weed control at 31 g/ha ([4]; 31 g ai/ha): 100%; pest or weed control at 125 g/ha ([4]; 125 g ai/ha): 100%; pest or weed control at 31 g/ha ([5]; 31 g ai/ha): 100%; pest or weed control at 125 g/ha ([5]; 125 g ai/ha): 100%; pest or weed control at 31 g/ha ([6]; 31 g ai/ha): 0%; pest or weed control at 125 g/ha ([6]; 125 g ai/ha): 60%; pest or weed control at 31 g/ha (kochia (Kochia scoparia) [7]; 31 g ai/ha): 50%; pest or weed control at 125 g/ha (kochia (Kochia scoparia) [7]; 125 g ai/ha): 90%; pest or weed control at 31 g/ha ([8]; 31 g ai/ha): 30%; pest or weed control at 125 g/ha ([8]; 125 g ai/ha): 60%; pest or weed control at 31 g/ha ([9]; 31 g ai/ha): 60%; pest or weed control at 125 g/ha ([9]; 125 g ai/ha): 80%; pest or weed control at 31 g/ha ([10]; 31 g ai/ha): 40%; pest or weed control at 125 g/ha ([10]; 125 g ai/ha): 80%; pest or weed control at 31 g/ha ([11]; 31 g ai/ha): 100%; pest or weed control at 125 g/ha ([11]; 125 g ai/ha): 100%; pest or weed control at 31 g/ha ([12]; 31 g ai/ha): 40%; pest or weed control at 125 g/ha ([12]; 125 g ai/ha): 80%; pest or weed control at 31 g/ha ([13]; 31 g ai/ha): 30%; pest or weed control at 125 g/ha ([13]; 125 g ai/ha): 90%; pest or weed control at 31 g/ha ([14]; 31 g ai/ha): 30%; pest or weed control at 125 g/ha ([14]; 125 g ai/ha): 50%; plant injury at 31 g/ha ([15]; 31 g ai/ha): 0%; plant injury at 125 g/ha ([15]; 125 g ai/ha): 20%; Corn plant response rating (crop injury, 0 = no effect, 100 = complete kill) at 31 g/ha (corn (Zea mays); 31 g ai/ha): 10%; Corn plant response rating (crop injury, 0 = no effect, 100 = complete kill) at 125 g/ha (corn (Zea mays); 125 g ai/ha): 50%; plant injury at 250 g/ha (rice (Oryza sativa)): 0%; pest or weed control at 250 g/ha [16]: 0%; pest or weed control at 250 g/ha [17]: 40%; pest or weed control at 250 g/ha [18]: 30%
